Experimental data reported in patent US20150031714A1, “METHODS AND COMPOSITIONS FOR PREVENTION OF ALLERGIC REACTION” (Baylor College of Medicine, priority 2013, published 2015).

Test system: Stat1 (pY701)
Experiment: Immunoblot assay of IFN-γ-mediated Stat1 phosphorylation in HepG2 cells
Format: cell-based, human
Conditions: 300 μM, 1 hour at 37° C.
Method: HepG2 cells were pretreated with DMSO alone or DMSO containing each of the compounds at a concentration of 300 μM for 60 min. Cells were then stimulated with IFN-γ (30 ng/ml) for 30 min. Protein extracts of cells were separated by SDS-PAGE and immunoblotted serially with antibodies to pStat1, total Stat1 and β-actin. Blots were stripped between each immunoblotting. The results shown are representative of 2 or more experiments.
Immunoblot assay. The human hepatocellular carcinoma cell line (HepG2) was grown in 6-well plates under standard conditions. Cells were pretreated with compounds (0, 1, 3, 10, 30, 100 and 300 uM) for 1 hour then stimulated under optimal conditions with either interferon gamma (IFN-γ; 30 ng/ml for 30 min) to activate Stat1 or interleukin-6 (IL-6; 30 ng/ml for 30 min) to activate Stat3 (30-31). Cultures were then harvested and proteins extracted using high-salt buffer, as described (Shao et al., 2006). Briefly, extracts were mixed with 2× sodium dodecyl sulfate (SDS) sample buffer (125 mmol/L Tris-HCL pH 6.8; 4% SDS; 20% glycerol; 10% 2-mercaptoethanol) at a 1:1 ratio and heated for 5 minutes at 100° C. Proteins (20 μg) were separated by 7.5% SDS-PAGE and transferred to polyvinylidene fluoride (PVDF) membrane (Millipore, Waltham, Mass.) and immunoblotted. Prestained molecular weight markers (Biorad, Hercules, Calif.) were included in each gel. Membranes were probed serially with antibody against Stat1 pY^701 or Stat3 pY^705 followed by antibody against Stat1 or Stat3 (Transduction labs, Lexington, Ky.) then antibody against β-actin (Abcam, Cambridge, Mass.). Membranes were stripped between antibody probing using Restore™ Western Blot Stripping Buffer (Thermo Fisher Scientific Inc., Waltham, Mass.) per the manufacturer's instructions. Horseradish peroxidase-conjugated goat-anti-mouse IgG was used as the secondary antibody (Invitrogen Carlsbad, Calif.) and the membranes were developed with enhanced chemiluminescence (ECL) detection system (Amersham Life Sciences Inc.; Arlington Heights, Ill.).
While Stat3 contributes to oncogenesis, in part, through inhibition of apoptosis, Stat1 is anti-oncogenic; it mediates the apoptotic effects of interferons and contributes to tumor surveillance (Kaplan et al., 1998; Ramana et al., 2000). Consequently, compounds that target Stat3 while sparing Stat1, leaving its anti-oncogenic functions unopposed, may result in a synergistic anti-tumor effect. […] Thus, five of the six exemplary compounds identified were selective and inhibited ligand-stimulated phosphorylation of Stat3 but not Stat1.
EXP IIC. Ligand-mediated pStat3 and pStat1 inhibition assays. […] Briefly, human hepatocellular carcinoma cells (HepG2) are grown in 6-well plates and pretreated with compounds (0, 0.1, 0.3, 1, 3, 10, 30, 100 μM) for 1 hour then stimulated under optimal conditions with either interleukin-6 (IL-6; 30 ng/ml for 30 min) to activate Stat3 or interferon gamma (IFN-γ; 30 ng/ml for 30 min) to activate Stat1. Cells are harvested and proteins extracted using high-salt buffer, mixed with 2× sodium dodecyl sulfate (SDS) sample buffer (125 mmol/L Tris-HCL pH 6.8; 4% SDS; 20% glycerol; 10%2-mercaptoethanol) at a 1:1 ratio then heated for 5 minutes at 100° C. Proteins (20 μg) are separated by 7.5% SDS-PAGE and transferred to polyvinylidene fluoride (PVDF) membrane (Millipore, Waltham, Mass.) and immunoblotted. Membranes are probed serially with antibody against Stat1 pY701 or Stat3 pY705 followed by antibody against Stat1 or Stat3 (Transduction labs, Lexington, Ky.) then antibody against β-actin (Abcam, Cambridge, Mass.). Membranes are stripped between antibody probings using Restore™ Western Blot Stripping Buffer (Thermo Fisher Scientific Inc., Waltham, Mass.) per the manufacturer's instructions. […]

Row | Compound | Stat1 phosphorylation after IFN-γ stimulation
1 | O=C(O)c1ccc(C=CC(=O)c2ccc3c(c2)OCCO3)cc1 [Cpd3, 4-[3-(2,3-dihydro-1,4-benzodioxin-6-yl)-3-oxo-1-propen-1-yl]benzoic acid] | did not
2 | CCOc1cc(C=C2C(=O)c3ccccc3C2=O)cc(Cl)c1OCc1cccc(C(=O)O)c1 [Cpd3-2, 3-({2-chloro-4-[(1,3-dioxo-1,3-dihydro-2H-inden-2-ylidene)methyl]-6-ethoxyphenoxy}methyl)benzoic acid] | did not
